According to article PMC6523162 (Metabolites, 2019):
Where “and” joins values, the source holds several entries; their conditions need not be identical. Equal entries are not always repeated.

Key:
[1] = PAMPA gut passive permeability; type: in vitro ADME; conditions: for -log Pe: PAMPA gut, 4 h
Experimental: (§1) Parallel Artificial Membrane Permeability Assay was performed to analyze both blood–brain barrier (BBB) and gut passive permeability. All materials for PAMPA were purchased from Pion, Inc (Billerica, MA, USA). Both the gut and BBB assays were performed according to the manufacturer’s instructions. Briefly, test compounds and standards were prepared at 10 mM concentrations in DMSO. For the gut assay, Prisma HT buffer was adjusted to pHs 5, 6.2, and 7.4 by adding 0.5 M NaOH. In the deepwell plate provided by Pion, 1 mL of each pH-adjusted buffer was added to separate wells. For each pH, 5 µL of the sample was added to the 1 mL of buffer then mixed thoroughly with a pipette, diluting the sample to a final concentration of 50 µM. Next, 200 µl of the diluted sample was added to the donor (bottom) plate from the Pion sandwich assay, 5 µL of GIT lipid matrix was added to the membrane on the bottom of the acceptor plate, and 200 µL of acceptor sink buffer was added in each well of the acceptor plate. The sandwich was assembled, and the plate incubated at room temperature for 4 h undisturbed. In BBB assays, compounds (10 mM) were diluted to final concentrations of 50 µM in Prisma HT Buffer (pH = 7.4). The PAMPA sandwich was created with the donor (bottom), BBB artificial membrane, and brain sink buffer as the acceptor (top). The assay was performed for 1 h at room temperature with shaking (60 µm) using the manufacturer-supplied GIT Box. After incubation, the UV profiles of the donor and acceptor plates were read on the SpectraMax plate reader connected to the PAMPA software. PAMPA software calculated the –log Pe values for each compound and standard using the UV profiles of the donor and acceptor plates.

[2] = system: TNF-α release from LPS-stimulated BV-2 murine microglia; test: TNF-α ELISA in LPS-stimulated BV-2 media; type: cell-based; conditions: for Mean Diff., LPS (1 μg/mL) vs. compound, TNF-α: Tukey's multiple comparisons test; for effect on TNF-α production (in words): 20 μM and 10 μM, compared to LPS-induced treatment; for reduction of TNF-α compared to LPS: LPS 1 μg/mL
Experimental: (§2) As previously published, BV-2 cells were seeded at a density of 100,000 cells/mL in 24-well plates. […] Media were collected, aliquoted for nitric oxide and cytokine analysis.
(§3) IL-6 and TNF-α were measured from BV-2 media using Enzyme Linked Immunosorbent Assay (ELISA) provided by Biolegend (San Diego, CA, USA).

[3] = system: nitric oxide production in LPS-stimulated BV-2 murine microglia; test: Nitric oxide quantification (Griess assay) in LPS-stimulated BV-2; type: cell-based; conditions: 1 h pre-treatment, LPS 1 μg/mL 23 h
[4] = system: IL-6 release from LPS-stimulated BV-2 murine microglia; test: IL-6 ELISA in LPS-stimulated BV-2 media; type: cell-based; conditions: for Mean Diff., LPS (1 μg/mL) vs. compound, IL-6: Tukey's multiple comparisons test; for IL-6 concentration: 10 μM compound + LPS 1 μg/mL; for reduction of IL-6 production compared to LPS: LPS 1 μg/mL
Experimental: as §2, §3

[5] = system: nitric oxide production in LPS-stimulated BV-2 murine microglia; test: Nitric oxide quantification (Griess assay) in LPS-stimulated BV-2; type: cell-based; conditions: for Mean Diff., LPS (1 μg/mL) vs. compound, NOS production: Tukey's multiple comparisons test; for nitric oxide concentration: 10 μM compound + LPS 1 μg/mL
Experimental: as §2
Nitric oxide was detected in BV-2 culture media following the stimulation of LPS for 24 h from the previously described experiment by way of the Griess Assay (Promega, Madison WI), according to the manufacturer’s protocol.

[6] = PAMPA BBB passive permeability; type: in vitro ADME; conditions: for PAMPA BBB permeability (in words): pH 7.4; for -log Pe: PAMPA BBB, pH 7.4, 50 µM, 1 h
Experimental: as §1

Row | Compound | PAMPA gut permeability (in words) ([1]; pH 5.0, 6.2 and 7.4) | PAMPA BBB permeability (in words) [6] | -log Pe [6] | Mean Diff., LPS (1 μg/mL) vs. compound, TNF-α ([2]; 10 μM) | Mean Diff., LPS (1 μg/mL) vs. compound, TNF-α ([2]; 20 μM) | reduction of nitric oxide compared to LPS alone ([3]; 20 μM) [%] | Mean Diff., LPS (1 μg/mL) vs. compound, IL-6 ([4]; 10 μM) | Mean Diff., LPS (1 μg/mL) vs. compound, IL-6 ([4]; 20 μM) | Mean Diff., LPS (1 μg/mL) vs. compound, NOS production ([5]; 10 μM) | Mean Diff., LPS (1 μg/mL) vs. compound, NOS production ([5]; 20 μM) | TNF-α concentration ([2]; 10 μM compound + LPS 1 μg/mL) [pg/mL] | reduction of TNF-α compared to LPS ([2]; 10 μM) [%] | reduction of nitric oxide compared to LPS alone ([3]; 10 μM) | IL-6 concentration [4] [pg/mL] | reduction of IL-6 production compared to LPS ([4]; 10 μM) | nitric oxide concentration [5] [µM] | further results
1 | Cc1cc(=O)n(-c2ccccc2)n1C [Antipyrine, reference compound] |  |  |  |  |  |  |  |  |  |  |  |  |  |  |  |  | PAMPA gut permeability (in words) ([1]; pH 5): medium
2 | O=c1c(-c2ccc(O)cc2)coc2cc(O)ccc12 [DAI, daidzein] | most permeable at pHs 5 and 6.2 |  |  | 57.91 | 70.55 | 24 | 17.26 | 20.68 | 4.129 | 9.223 |  |  |  |  |  |  | effect on TNF-α production (in words) [2]: similar, albeit less potent, protective abilities
3 | OC[C@H](Cc1cccc(O)c1)[C@H](CO)Cc1cccc(O)c1 [ED, enterodiol] | lowest permeability of all test compounds | low permeability |  | 2.638 |  |  | -24.9 |  | 4.354 |  | 515.8 | 0.5 | ~8.54% | 690.6 | approximately 3.74% | 46.65 | 
4 | CC(C(=O)O)c1cccc(C(=O)c2ccccc2)c1 (stereo not drawn) [Ketoprofen, ketoprofen, reference compound] | variable permeability with pH change |  |  |  |  |  |  |  |  |  |  |  |  |  |  |  | 
5 | CNC(=C[N+](=O)[O-])NCCSCc1ccc(CN(C)C)o1 [Ranitidine, ranitidine, reference compound] | low |  |  |  |  |  |  |  |  |  |  |  |  |  |  |  | 
6 | lipopolysaccharide [LPS, reference compound] |  |  |  |  |  |  |  |  |  |  |  |  |  |  |  |  | TNF-α concentration ([2]; LPS 1 μg/mL alone): 687.7 ± 8.0 pg/mL and 518.4 pg/mL; nitric oxide species concentration ([5]; LPS 1 μg/mL alone): 41.5 ± 5.6 µM and 51.01 µM

Further lines, with some results ahead:

Row | PAMPA gut permeability (in words) ([1]; pH 5.0, 6.2 and 7.4) | PAMPA BBB permeability (in words) [6] | -log Pe [6] | Compound | Mean Diff., LPS (1 μg/mL) vs. compound, TNF-α ([2]; 10 μM) | Mean Diff., LPS (1 μg/mL) vs. compound, TNF-α ([2]; 20 μM) | reduction of nitric oxide compared to LPS alone ([3]; 20 μM) [%] | Mean Diff., LPS (1 μg/mL) vs. compound, IL-6 ([4]; 10 μM) | Mean Diff., LPS (1 μg/mL) vs. compound, IL-6 ([4]; 20 μM) | Mean Diff., LPS (1 μg/mL) vs. compound, NOS production ([5]; 10 μM) | Mean Diff., LPS (1 μg/mL) vs. compound, NOS production ([5]; 20 μM) | TNF-α concentration ([2]; 10 μM compound + LPS 1 μg/mL) [pg/mL] | reduction of TNF-α compared to LPS ([2]; 10 μM) [%] | reduction of nitric oxide compared to LPS alone ([3]; 10 μM) | IL-6 concentration [4] [pg/mL] | reduction of IL-6 production compared to LPS ([4]; 10 μM) | nitric oxide concentration [5] [µM] | further results
7 |  | high permeability | 3.97 ± 0.14 | O=C1OC[C@H](Cc2cccc(O)c2)[C@H]1Cc1cccc(O)c1 [EL, enterolactone] | 152.8 |  |  | 175.8 |  | 15.34 |  | 365.6 | 29.47 | ~30.07% | 489.9 | ~26.41% | 35.67 | -log Pe ([1]; pH 5, 50 µM): 4.27 ± 0.05; -log Pe ([1]; pH 6.2, 50 µM): 4.37 ± 0.02
8 |  | high permeability | 3.52 ± 0.20 | Oc1ccc([C@H]2COc3cc(O)ccc3C2)cc1 [EQ, equol] | 57.03 | 72.78 | 22 | 10.39 | 19.48 | 6.216 | 8.47 |  |  |  |  |  |  | -log Pe ([1]; pH 5, 50 µM): 4.35 ± 0.11; -log Pe ([1]; pH 6.2, 50 µM): 4.20 ± 0.02; effect on TNF-α production (in words) [2]: similar, albeit less potent, protective abilities
9 |  | Intermediate BBB permeability | 4.26 ± 0.16 | O=c1c(-c2ccc(O)cc2)coc2cc(O)cc(O)c12 [GEN, genistein] | 113.8 | 199.8 | 68 | 35.15 | 83.38 | 14.41 | 26.17 |  | 16.6 | 38% |  | 34.0% |  | reduction of TNF-α compared to LPS ([2]; 20 μM): 29.1%; reduction of IL-6 production compared to LPS ([4]; 20 μM): 80.4%
10 | moderate permeability | low permeability |  | COc1cc(C[C@@H](CO)[C@H](CO)Cc2ccc(O)c(OC)c2)ccc1O [SECO, secoisolariciresinol] | 20.62 |  |  | -7.108 |  | 4.653 |  | 497.8 | 3.97 | approximately 9.13% | 672.8 | 1.05% | 46.35 | 
